{"source": "patent US10508285B2", "about": "“Method for screening of genes conferring increased tolerance to herbicides” (priority 2014, dated 2019)", "system": "Protoporphyrinogen IX Oxidase (PPO) R128L", "assay_type": "cell-based, Amaranthus tuberculatus", "data": [{"smiles": "CC(C)N(C)S(=O)(=O)NC(=O)c1cc(-n2c(=O)cc(C(F)(F)F)n(C)c2=O)c(F)cc1Cl", "note": "[Saflufenacil]", "values": [{"measurement": "Tolerance factor", "result": 170}]}, {"smiles": "C#CCN1C(=O)C(F)(F)Oc2cc(F)c(-n3c(=O)n(C)c(=S)n(C)c3=O)cc21", "note": "[BAS 850H]", "values": [{"measurement": "Tolerance factor", "result": 28.7}]}]}
